Measurements: publication PMC3038857, “Using Nuclear Receptor Activity to Stratify Hepatocarcinogens” (PLoS ONE, 2011)
Like-named read-outs stand apart in the source and are kept apart here.

Columns and labels:
[1] = system: Rat Liver; conditions: ref ToxRefDB, cited from earlier work
[2] = system: Rat Liver; conditions: ref ToxRefDB, cited from earlier work; remark: listed apart in the source
[3] = system: Rat Liver; conditions: ref ToxRefDB, cited from earlier work; remark: listed apart in the source
[4] = system: Mouse Liver; conditions: ref ToxRefDB, cited from earlier work
[5] = system: Mouse Liver; conditions: ref ToxRefDB, cited from earlier work; remark: listed apart in the source
[6] = system: Mouse Liver; conditions: ref ToxRefDB, cited from earlier work; remark: listed apart in the source
[7] = system: CYP1A1; experiment: CLZD_CYP1A1: Change in expression of CYP1A1 (primary human hepatocytes); assay type: cell-based; conditions: 24 hr
Protocol: (§1) This is a collection of multiplexed gene expression assays focused on Phase I and II xenobiotic metabolizing enzymes and transporters. Human primary cell cultures were treated with chemicals at 5 concentrations (0.004-40 [drawing 42] M) for 6, 24 and 48 hr. Concentration- and time-response profiles of chemicals were measured by the expression of key nuclear receptor target genes, activities of CYP1A enzymes (EROD), and cell morphology. Fourteen gene targets were monitored by quantitative nuclease protection assay including: six representative cytochrome P-450 genes, four hepatic transporters, three Phase II conjugating enzymes, and one endogenous metabolism gene involved in cholesterol synthesis. The target genes associated with nuclear receptor pathways are as follows: [drawing 43] and [drawing 44] with [drawing 45]; [drawing 46] , [drawing 47] , [drawing 48] , [drawing 49] , [drawing 50] and [drawing 51] with [drawing 52]; [drawing 53] , [drawing 54] , [drawing 55] and [drawing 56] with [drawing 57]; [drawing 58] with [drawing 59]; and [drawing 60] with [drawing 61] . Assays were run in primary human hepatocyte cultures by CellzDirect Invitrogen Inc. (Durham, NC), in collaboration with EPA.
(§2) Multiplexed Gene Expression in Human Primary Hepatocytes: This is a collection of multiplexed gene expression assays focused on Phase I and II metabolic enzymes and transporters. […] Fourteen gene targets were monitored by quantitative nuclease protection assay: six representative cytochrome P450 genes, four hepatic transporters, three Phase II conjugating enzymes, and one endogenous metabolism gene involved in cholesterol synthesis. Cells were exposed at 5 concentrations (0.004-40 µM) for 6, 24 or 48 hr. Gene targets are sentinels for five nuclear receptor signaling pathways: AhR, CAR, PXR, FXR, and PPARα. All gene are associated with nuclear receptor pathways: CYP1A1 and CYP1A2 with AHR; ABCB1, ABCG2, CYP2B6, CYP2C9, CYP2C19 and UGT1A1 with CAR; CYP3A4, GSTA2, SLCO1B1 and SULT2A1 with PXR; HMGCS2 with PPARA; and ABCB11 with FXR. […] Detailed description of the methods, data and analysis methods for this dataset will be presented in a separate publication.

[8] = target: T1, PPARG (peroxisome proliferator-activated receptor gamma) (Homo sapiens, UniProt P37231); experiment: ATG_PPARg_TRANS: Factorial reporter gene assay (HepG2); assay type: cell-based; conditions: HepG2
T1 construct: expressed in transfected cells; host or cells: HepG2
T1 sequence (P37231 1-505): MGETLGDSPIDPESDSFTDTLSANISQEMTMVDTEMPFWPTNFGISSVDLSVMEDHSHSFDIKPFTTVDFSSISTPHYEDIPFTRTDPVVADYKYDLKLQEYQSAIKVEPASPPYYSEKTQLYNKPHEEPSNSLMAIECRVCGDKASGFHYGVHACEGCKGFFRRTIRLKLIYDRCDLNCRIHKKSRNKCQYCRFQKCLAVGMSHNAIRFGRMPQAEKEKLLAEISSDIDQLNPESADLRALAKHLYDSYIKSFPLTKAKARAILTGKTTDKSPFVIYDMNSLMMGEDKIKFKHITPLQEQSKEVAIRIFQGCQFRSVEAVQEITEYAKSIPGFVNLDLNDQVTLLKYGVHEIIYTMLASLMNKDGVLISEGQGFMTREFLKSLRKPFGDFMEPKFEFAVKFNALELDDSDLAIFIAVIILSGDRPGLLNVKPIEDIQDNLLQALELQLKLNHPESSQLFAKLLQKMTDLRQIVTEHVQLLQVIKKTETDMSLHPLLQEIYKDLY
Protocol: (§3) A multiple reporter transcription unit (MRTU) library consisting of 48 transcription factor binding sites was transfected into the HepG2 human liver hepatoma cell line. In addition to the cis-acting reporter genes (CIS), a modification of the approach was used to generate a trans-system (TRANS) with a mammalian one-hybrid assay consisting of an additional 25 MRTU library reporting the activity of nuclear receptor super-family members. […] These assays were performed by Attagene Inc. (Morrisville NC) under contract to EPA.
(§4) In addition to the cis-acting reporter genes (CIS), a modification of the approach was used to generate a trans-system (TRANS) with a mammalian one-hybrid assay consisting of an additional 25 MRTU library reporting the activity of nuclear receptor super-family members. […] Chemicals were then tested in the CIS and TRANS assays at seven concentrations starting at the MTC and followed by three-fold serial dilutions. These assays were performed by Attagene Inc. (Morrisville NC) under contract to EPA. Detailed description of the methods, data and analysis methods for this dataset will be presented in a separate publication.

[9] = target: T2, PXR (NR1I2) (Homo sapiens, UniProt O75469); experiment: NVS_NR_hPXR: Human PXR Fluormone PXR (SXR) green (cell-free HTS); assay type: binding
T2 sequence (O75469 1-434): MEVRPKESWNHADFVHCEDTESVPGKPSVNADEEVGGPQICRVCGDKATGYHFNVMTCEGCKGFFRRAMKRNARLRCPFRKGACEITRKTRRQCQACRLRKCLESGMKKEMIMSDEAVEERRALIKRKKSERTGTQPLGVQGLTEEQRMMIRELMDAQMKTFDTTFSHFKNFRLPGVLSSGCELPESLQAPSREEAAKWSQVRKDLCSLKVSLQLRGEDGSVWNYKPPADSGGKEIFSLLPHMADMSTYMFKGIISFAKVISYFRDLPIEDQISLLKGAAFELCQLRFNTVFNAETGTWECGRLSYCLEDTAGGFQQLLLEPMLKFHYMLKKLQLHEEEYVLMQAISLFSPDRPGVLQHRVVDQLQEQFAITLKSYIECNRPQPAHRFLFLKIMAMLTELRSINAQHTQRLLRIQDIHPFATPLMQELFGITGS
From the text: These are a collection of biochemical assays measuring binding constants and enzyme inhibition values. Chemicals were initially screened at a single concentration in duplicate wells at a concentration of 10 [drawing 63] M for cytochrome P-450 assays and 25 [drawing 64] M for all others. […] These assays were run by Caliper Life Sciences (Hanover, MD) under contract to EPA. Short assay descriptions are available at: http://www.caliperls.com/products/contract-research/in-vitro/.
Cell-free HTS Assays: A collection of biochemical assays measuring binding constants and enzyme inhibition values. […] These assays were run by Caliper Life Sciences (Hanover, MD) under contract to EPA. Short assay descriptions are available at http://www.caliperls.com/products/contract-research/in-vitro/. Values for all endpoints were imported into GeneData Screener (Basel, Switzerland) and normalised to solvent controls from the same plate as the tested compounds and expressed as percent of neutral control. Concentration-response curves were fit in GeneData Screener (Basel, Switzerland) Condeseo module using the Hill equation and AC50 values were determined. […] Detailed description of the methods, data and analysis methods for this dataset are described in a separate publication.

[10] = system: CYP1A2; experiment: CLZD_CYP1A2: Change in expression of CYP1A2 (primary human hepatocytes); assay type: cell-based; conditions: 24 hr
Protocol: as §1, §2

[11] = target: T2, PXR (NR1I2); experiment: ATG_PXRE_CIS: Factorial reporter gene assay (HepG2); assay type: cell-based; set-up: endogenous in cells; host or cells: HepG2; conditions: HepG2
Protocol: as §3, §4

[12] = mouse chronic study, liver, preneoplastic lesion, coded 6 / Inf, code not explained in the table
[13] = mouse chronic study, liver, neoplastic lesion, coded 6 / Inf, code not explained in the table
[14] = mouse chronic study, liver, any lesion, coded 6 / Inf, code not explained in the table
[15] = rat chronic study, liver, coded 6 / 0, code not explained in table
[16] = mouse chronic study, liver, coded 6 / Inf, code not explained in table

Which results are given for Cc1ccc(/N=C/N(C)/C=N/c2ccc(C)cc2C)c(C)c1 [Dataset S3 row 18]?
CHR_Rat_Liver_2_PreneoplasticLesion ([1]; rat chronic study, liver, preneoplastic lesion, coded 6 / 0, code not explained in the table): 0; CHR_Rat_Liver_3_NeoplasticLesion ([2]; rat chronic study, liver, neoplastic lesion, coded 6 / 0, code not explained in the table): 0; CHR_Rat_Liver_1_AnyLesion ([3]; rat chronic study, liver, any lesion, coded 6 / 0, code not explained in the table): 0; CHR_Mouse_Liver_2_PreneoplasticLesion [4, 12]: 6; CHR_Mouse_Liver_3_NeoplasticLesion [5, 13]: 6; CHR_Mouse_Liver_1_AnyLesion [6, 14]: 6

What does the source list for CS/C(C)=N/OC(=O)N(C)SN(C)C(=O)O/N=C(\C)SC [chemical 300]?
CHR_Rat_Liver_2_PreneoplasticLesion [1, 15]: 0; CHR_Rat_Liver_3_NeoplasticLesion [2, 15]: 0; CHR_Rat_Liver_1_AnyLesion [3, 15]: 0; CHR_Mouse_Liver_2_PreneoplasticLesion [4, 16]: 6; CHR_Mouse_Liver_3_NeoplasticLesion [5, 16]: 6; CHR_Mouse_Liver_1_AnyLesion [6, 16]: 6

For CC(C)(C)C(O)C(Oc1ccc(Cl)cc1)n1cncn1 (centres unmarked) [chemical 305], which CHR_Rat_Liver_2_PreneoplasticLesion [1, 15] is on record?
The CHR_Rat_Liver_2_PreneoplasticLesion was 0.

What about the CHR_Rat_Liver_3_NeoplasticLesion [2, 15] of the same compound?
Its CHR_Rat_Liver_3_NeoplasticLesion is 0.

What about the CHR_Rat_Liver_1_AnyLesion [3, 15] of the same compound?
The CHR_Rat_Liver_1_AnyLesion was 0.

And the CHR_Mouse_Liver_2_PreneoplasticLesion [4, 16]?
Its CHR_Mouse_Liver_2_PreneoplasticLesion is 6.

What about the CHR_Mouse_Liver_3_NeoplasticLesion [5, 16] of the same compound?
Its CHR_Mouse_Liver_3_NeoplasticLesion is 6.

What about the CHR_Mouse_Liver_1_AnyLesion [6, 16] of the same compound?
The CHR_Mouse_Liver_1_AnyLesion was 6.

With CC1=NNC(=O)N(/N=C/c2cccnc2)C1 [r269] as the compound, how does the CHR_Rat_Liver_2_PreneoplasticLesion ([1]; chronic study, rat liver) read?
The CHR_Rat_Liver_2_PreneoplasticLesion was 6.

What about the CHR_Rat_Liver_3_NeoplasticLesion ([2]; chronic study, rat liver) of the same compound?
The CHR_Rat_Liver_3_NeoplasticLesion was 6.

What about the CHR_Rat_Liver_1_AnyLesion ([3]; chronic study, rat liver) of the same compound?
The CHR_Rat_Liver_1_AnyLesion was 6.

And the CHR_Mouse_Liver_2_PreneoplasticLesion ([4]; chronic study, mouse liver)?
Its CHR_Mouse_Liver_2_PreneoplasticLesion is 6.

What about the CHR_Mouse_Liver_3_NeoplasticLesion ([5]; chronic study, mouse liver) of the same compound?
Its CHR_Mouse_Liver_3_NeoplasticLesion is 6.

And the CHR_Mouse_Liver_1_AnyLesion ([6]; chronic study, mouse liver)?
Its CHR_Mouse_Liver_1_AnyLesion is 6.

With CCCCNC(=O)n1c(NC(=O)OC)nc2ccccc21 [Dataset S3 row 27] as the compound, how does the CHR_Mouse_Liver_2_PreneoplasticLesion [4, 12] read?
Its CHR_Mouse_Liver_2_PreneoplasticLesion is 6.

What about the CHR_Mouse_Liver_3_NeoplasticLesion [5, 13] of the same compound?
The CHR_Mouse_Liver_3_NeoplasticLesion was 6.

And the CHR_Mouse_Liver_1_AnyLesion [6, 14]?
The CHR_Mouse_Liver_1_AnyLesion was 6.

Which CLZD_CYP1A1_24 [7] does the source give for S=C([S-])NCCNC(=S)[S-].[Zn+2] [row 207] here?
The CLZD_CYP1A1_24 was 5.214.

And the ATG_PPARg_TRANS [8]?
Its ATG_PPARg_TRANS is 4.409.

And the CHR_Rat_Liver_2_PreneoplasticLesion ([1]; chronic rat study, liver)?
Its CHR_Rat_Liver_2_PreneoplasticLesion is 0.

What about the NVS_NR_hPXR [9] of the same compound?
Its NVS_NR_hPXR is 5.59.

And the CHR_Rat_Liver_3_NeoplasticLesion ([2]; chronic rat study, liver)?
The CHR_Rat_Liver_3_NeoplasticLesion was 0.

And the CLZD_CYP1A2_24 [10]?
Its CLZD_CYP1A2_24 is 5.296.

What about the CHR_Rat_Liver_1_AnyLesion ([3]; chronic rat study, liver) of the same compound?
The CHR_Rat_Liver_1_AnyLesion was 0.

And the ATG_PXRE_CIS [11]?
Its ATG_PXRE_CIS is 4.387.

With CCCCN(CC)c1c([N+](=O)[O-])cc(C(F)(F)F)cc1[N+](=O)[O-] [Dataset S3 row 26] as the compound, how does the CHR_Mouse_Liver_2_PreneoplasticLesion [4, 12] read?
The CHR_Mouse_Liver_2_PreneoplasticLesion was 6.

And the CHR_Mouse_Liver_3_NeoplasticLesion [5, 13]?
Its CHR_Mouse_Liver_3_NeoplasticLesion is 6.

What about the CHR_Mouse_Liver_1_AnyLesion [6, 14] of the same compound?
The CHR_Mouse_Liver_1_AnyLesion was 6.
